Source: patent US12552783B2, “Modulators of proteolysis and associated methods of use” (Arvinas Operations, Inc., priority 2018, dated 2026)

Molecular target: KRas (Homo sapiens, UniProt P01116, G12C)
Experiment: KRas degradation in SW1573 cells by Western blot, normalized to GAPDH (data of Table 14)
Assay type: cell-based
Conditions: SW1573 cells
Protocol: Cell Lines, Antibodies, and Reagents. NCI-H2030 (CRL-5914) and SW1573 (CRL-2170) cells were purchased from ATCC. Both cell lines are homozygous for the G12C mutation in KRas. NCI-H2030 cells were cultured in RPMI-1640 medium containing 1% penicillin-streptomycin and 10% fetal bovine serum (FBS). SW1573 cells were cultured in DMEM containing 1% penicillin-streptomycin and 10% FBS. The KRas detection antibody (Cat. No. LS-C175665) was purchased from LifeSpan Biosciences and was used at a dilution of 1:2000. GAPDH was detected using an antibody purchased from Cell Signaling Technology (Cat. No. 5174) and was diluted 1:3000. Secondary anti-mouse and anti-rabbit detection antibodies were purchased from Cell Signaling Technology (Cat. Nos. 7076 and 7074, respectively).
Compound Treatment and Western Blotting of the Data of Table 14. Either NCI-H2030 or SW1573 cells were plated in 12-well plates and allowed to adhere overnight at 37° C. in an incubator containing 5% CO2. The following day, the medium was replaced with the appropriate medium lacking FBS to induce starvation. Cells were returned to the incubator for an additional 24 hours following media exchange. […] Cells were treated with VHL-based compounds for 24 hours and all other compounds for 72 hours. Following treatment, cells were lysed in RIPA buffer (Thermo Fisher Cat. No. 89900) containing phosphatase (Thermo Fisher Cat. No. 1861277) and protease (Thermo Fisher Cat. No. 78429) inhibitor cocktails. Lysates were cleared at 13,000 rpm for 15 minutes and supernatants were assayed for total protein concentration using the Pierce BCA assay system (Thermo Fisher Cat. No. 23225). For each sample, 10 μg total protein was resolved on a 12% Bis-Tris gel and then transferred to a nitrocellulose membrane. After blocking in 3% BSA in TBST (Tris-buffered Saline with 0.1% Tween-20) for 1 hour at room temperature, membranes were probed with the primary antibody (LS Bio Cat. No. LS-C175665) overnight at 4° C. After incubation with the secondary antibody, the following day membranes were visualized using the SuperSignal™ West Femto substrate (Thermo Fisher Cat. No. 34095). The KRas signal in each lane was normalized to GAPDH and percent degradation was either estimated as less than 25% by visual inspection (C in Table 13) or quantitated relative to the DMSO control lane using BIO-RAD Image Lab 5.2.1, and all data was plotted using GraphPad PRISM 6.07.
DC50 is the half-maximal degradation concentration—i.e., the concentration at which 50% degradation is observed. DMax is the maximum degradation efficacy is achieved—i.e., the maximal degradation observed) degradation data.

Compound | Percent Degradation at Indicated Concentration (μM) (0.03 μM) | Percent Degradation at Indicated Concentration (μM) (0.1 μM) | Percent Degradation at Indicated Concentration (μM) (0.3 μM) | Dmax | Percent Degradation at Indicated Concentration (μM) (1 μM) | Percent Degradation at Indicated Concentration (μM) (3 μM)
C=CC(=O)N1CCN(c2nc(O[C@H](C)CN3CCC(OCCOCCOc4cc([C@@H](C(=O)N5C[C@H](O)C[C@H]5C(=O)N[C@@H](C)c5ccc(-c6scnc6C)cc5)C(C)C)on4)CC3)nc3c(F)c(-c4cc(O)cc5ccccc45)c(Cl)cc23)CC1 [compound 526, (2S,4R)-1-((2S)-2-(3-(2-(2-((1-((2R)-2-((4-(4-acryloylpiperazin-1-yl)-6-chloro-8-fluoro-7-(3-hydroxynaphthalen-1-yl)quinazolin-2-yl)oxy)propyl)piperidin-4-yl)oxy)ethoxy)ethoxy)isoxazol-5-yl)-3-methylbutanoyl)-4-hydroxy-N-((S)-1-(4-(4-methylthiazol-5-yl)phenyl)ethyl)pyrrolidine-2-carboxamide] | C (Percent Degradation: C ≤ 35) | C (Percent Degradation: C ≤ 35) | C (Percent Degradation: C ≤ 35) | – | – | –
C=CC(=O)N1CCN(c2nc(OC[C@@H]3C[C@@H](OCCOCCOCCOCCOCCNc4cccc5c4C(=O)N(C4CCC(=O)NC4=O)C5=O)CN3C)nc3c2CCN(c2cccc4ccccc24)C3)C[C@@H]1CC#N (stereo partly drawn) [compound 519, 2-((2S)-1-acryloyl-4-(2-(((2S,4R)-4-((14-((2-(2,6-dioxopiperidin-3-yl)-1,3-dioxoisoindolin-4-yl)amino)-3,6,9,12-tetraoxatetradecyl)oxy)-1-methylpyrrolidin-2-yl)methoxy)-7-(naphthalen-1-yl)-5,6,7,8-tetrahydropyrido[3,4-d]pyrimidin-4-yl)piperazin-2-yl)acetonitrile] | – | B (35 < B < 70) | A (A > 70) | ≥ 70% | C (Percent Degradation: C ≤ 35) | –
C=CC(=O)N1CCN(c2nc(OC[C@@H]3C[C@@H](OCCOCCOCCOc4ccc5c(c4)C(=O)N(C4CCC(=O)NC4=O)C5=O)CN3C)nc3c2CCN(c2cccc4ccccc24)C3)C[C@@H]1CC#N (stereo partly drawn) [compound 504, 2-((2S)-1-acryloyl-4-(2-(((2S,4R)-4-(2-(2-(2-((2-(2,6-dioxopiperidin-3-yl)-1,3-dioxoisoindolin-5-yl)oxy)ethoxy)ethoxy)ethoxy)-1-methylpyrrolidin-2-yl)methoxy)-7-(naphthalen-1-yl)-5,6,7,8-tetrahydropyrido[3,4-d]pyrimidin-4-yl)piperazin-2-yl)acetonitrile] | – | B (35 < B < 70) | A (A > 70) | ≥ 70% | C (Percent Degradation: C ≤ 35) | –
Cc1ncsc1-c1ccc([C@H](C)NC(=O)[C@@H]2C[C@@H](O)CN2C(=O)[C@@H](NC(=O)COCCOC2CCN(C[C@@H](C)Oc3nc(N4CCN(C(=O)C(O)O)CC4)c4cc(Cl)c(-c5cc(O)cc6ccccc56)c(F)c4n3)CC2)C(C)(C)C)cc1 [compound 244, (2S,4R)-1-((2S)-2-(2-(2-((1-((2R)-2-((6-chloro-4-(4-(2,2-dihydroxyacetyl)piperazin-1-yl)-8-fluoro-7-(3-hydroxynaphthalen-1-yl)quinazolin-2-yl)oxy)propyl)piperidin-4-yl)oxy)ethoxy)acetamido)-3,3-dimethylbutanoyl)-4-hydroxy-N-((S)-1-(4-(4-methylthiazol-5-yl)phenyl)ethyl)pyrrolidine-2-carboxamide] | – | – | C (Percent Degradation: C ≤ 35) | – | C (Percent Degradation: C ≤ 35) | C (Percent Degradation: C ≤ 35)
C=CC(=O)N1CCN(c2nc(O[C@H](C)CN3CCN(CC4CCN(CC(=O)N[C@H](C(=O)N5C[C@H](O)C[C@H]5C(=O)N[C@@H](C)c5ccc(-c6scnc6C)cc5)C(C)(C)C)CC4)CC3)nc3c(F)c(-c4cc(O)cc5ccccc45)c(Cl)cc23)CC1 [compound 404, (2S,4R)-1-((2S)-2-(2-(4-((4-((2R)-2-((4-(4-acryloylpiperazin-1-yl)-6-chloro-8-fluoro-7-(3-hydroxynaphthalen-1-yl)quinazolin-2-yl)oxy)propyl)piperazin-1-yl)methyl)piperidin-1-yl)acetamido)-3,3-dimethylbutanoyl)-4-hydroxy-N-((S)-1-(4-(4-methylthiazol-5-yl)phenyl)ethyl)pyrrolidine-2-carboxamide] | – | B (35 < B < 70) | A (A > 70) | – | A (A > 70) | –
C=CC(=O)N1CCN(c2nc(O[C@H](C)CN3CCC(OCCOCCOCC(=O)N[C@H](C(=O)N4C[C@@H](O)C[C@H]4C(=O)N[C@@H](C)c4ccc(-c5scnc5C)cc4)C(C)(C)C)CC3)nc3c(F)c(-c4cc(O)cc5ccccc45)c(Cl)cc23)CC1 [compound 405, (2S,4S)-1-((2S)-2-(2-(2-(2-((1-((2R)-2-((4-(4-acryloylpiperazin-1-yl)-6-chloro-8-fluoro-7-(3-hydroxynaphthalen-1-yl)quinazolin-2-yl)oxy)propyl)piperidin-4-yl)oxy)ethoxy)ethoxy)acetamido)-3,3-dimethylbutanoyl)-4-hydroxy-N-((S)-1-(4-(4-methylthiazol-5-yl)phenyl)ethyl)pyrrolidine-2-carboxamide] | – | C (Percent Degradation: C ≤ 35) | C (Percent Degradation: C ≤ 35) | – | C (Percent Degradation: C ≤ 35) | –
C=CC(=O)N1CCN(c2nc(OC[C@@H]3C[C@@H](OCCOCCOCCOCCOc4ccc5c(c4)C(=O)N(C4CCC(=O)NC4=O)C5=O)CN3C)nc3c2CCN(c2cccc4ccccc24)C3)C[C@@H]1CC#N (stereo partly drawn) [compound 481, 2-((2S)-1-acryloyl-4-(2-(((2S,4R)-4-(2-(2-(2-(2-((2-(2,6-dioxopiperidin-3-yl)-1,3-dioxoisoindolin-5-yl)oxy)ethoxy)ethoxy)ethoxy)ethoxy)-1-methylpyrrolidin-2-yl)methoxy)-7-(naphthalen-1-yl)-5,6,7,8-tetrahydropyrido[3,4-d]dipyrimidin-4-yl)piperazin-2-yl)acetonitrile] | – | C (Percent Degradation: C ≤ 35) | C (Percent Degradation: C ≤ 35) | 35 to 70% | B (35 < B < 70) | –
C=CC(=O)N1CCN(c2nc(O[C@H](C)CN3CCC(OCCOc4cc([C@@H](C(=O)N5C[C@H](O)C[C@H]5C(=O)N[C@@H](C)c5ccc(-c6scnc6C)cc5)C(C)C)on4)CC3)nc3c(F)c(-c4cc(O)cc5ccccc45)c(Cl)cc23)CC1 [compound 524, (2S,4R)-1-((2S)-2-(3-(2-((1-((2R)-2-((4-(4-acryloylpiperazin-1-yl)-6-chloro-8-fluoro-7-(3-hydroxynaphthalen-1-yl)quinazolin-2-yl)oxy)propyl)piperidin-4-yl)oxy)ethoxy)isoxazol-5-yl)-3-methylbutanoyl)-4-hydroxy-N-((S)-1-(4-(4-methylthiazol-5-yl)phenyl)ethyl)pyrrolidine-2-carboxamide] | C (Percent Degradation: C ≤ 35) | C (Percent Degradation: C ≤ 35) | C (Percent Degradation: C ≤ 35) | – | – | –
Cc1ncsc1-c1ccc([C@H](C)NC(=O)[C@@H]2C[C@@H](O)CN2C(=O)[C@@H](NC(=O)COCCOCCOCCOCCOC2CCN(C[C@@H](C)Oc3nc(N4CCN(C(=O)C(O)O)CC4)c4cc(Cl)c(-c5cc(O)cc6ccccc56)c(F)c4n3)CC2)C(C)(C)C)cc1 [compound 247, (2S,4R)-1-((2S)-2-(tert-butyl)-17-((1-((2R)-2-((6-chloro-4-(4-(2,2-dihydroxyacetyl)piperazin-1-yl)-8-fluoro-7-(3-hydroxynaphthalen-1-yl)quinazolin-2-yl)oxy)propyl)piperidin-4-yl)oxy)-4-oxo-6,9,12,15-tetraoxa-3-azaheptadecanoyl)-4-hydroxy-N-((S)-1-(4-(4-methylthiazol-5-yl)phenyl)ethyl)pyrrolidine-2-carboxamide] | – | – | C (Percent Degradation: C ≤ 35) | – | C (Percent Degradation: C ≤ 35) | C (Percent Degradation: C ≤ 35)
